For data set [1], the system named is T. cruzi epimastigotes. The settings on record: Ramos et al., 2009; cited from earlier work.
The subject of data set [2] is Trypanosoma cruzi epimastigotes (Tulahuen CL98 strain). Briefly: Antitrypanosomal activity against Trypanosoma cruzi epimastigotes (parasite count). Conditions: for IC50: T. cruzi epimastigotes, 48 h, mean ± S.E. of three experiments, read-out: Antitrypanocidal activity IC50; for Selectivity index greater/better than nifurtimox: in vitro selectivity index relative to nifurtimox; for Selectivity Index (Cytotoxicity/Activity): ratio of IC50 for fibroblast cells/IC50 for parasites. In kind it is cell-based. On the procedure:
(§1) The antitrypanosomal activity against Trypanosoma cruzi was assayed. Trypanosoma cruzi epimastigotes (Tulahuen CL98 strain) were cultured in liver infusion trypose (LIT) medium supplemented with 10% fetal bovine serum (FBS) at 28° C., with an inoculum of 1×10^5 cells/ml. […] All assays were carried out in triplicate. […] The data were subjected to statistical analysis. All experiments were done in triplicate, the means and standard errors (S.E.) were determined. Data were analyzed by one way ANOVA and Tukey's multiple comparison test using GraphPad PRISM software version 5.00. P<0.05 was considered significant.

Data set [3] has as its system Balb/C 3T3 mouse fibroblasts (clone A31). Briefly: MTT cytotoxicity assay on Balb/C 3T3 mouse fibroblasts. The format is cell-based. Conditions: for Cytotoxicity compared with nifurtimox: Balb/C 3T3 mouse fibroblast cell line, FIG. 4; for IC50: 48 h. On the procedure: (§2) A cytotoxicity assay was performed with representive analogs IMNDQ1 through IMNDQ11. […] MTT is a yellow tetrazolium salt that is reduced to purple formazan crystals by metabolically active cells. Cells (2.2×10^4 cells/well) were seeded in 96-well plate in Improved Minimum Essential Medium (IMEM). […] After 48 h incubation at 37° C. in the presence 5% CO2, the medium was aspirated and the cells washed twice to remove traces of chemical compounds. IMEM without phenol containing 10% (v/v) of 3 mg/ml MTT were added to each well. The plates were incubated for 4 h at 37° C. followed by aspiration. The plates were dried for 1 h in a 37° C. incubator. 100 μl of 0.04 N HCl in isopropanol were added to each well and incubated at room temperature (27° C.) in the dark for 2 h to dissolve the formazan crystals. The absorbance was measured spectrophotometrically at 570 nm in a plate reader. The concentration that reduces cell viability by 50% (IC50) was calculated for each compound. The toxicity for mammalian cells and the activity against T. cruzi were compared by calculating the selectivity index (SI), the ratio of IC50 for fibroblast cells/IC50 for parasites. The data were subjected to statistical analysis. All experiments were done in triplicate, the means and standard errors (S.E.) were determined. Data were analyzed by one way ANOVA and Tukey's multiple comparison test using GraphPad PRISM software version 5.00. P<0.05 was considered significant.
(In general: Formazan colour is commonly taken as a measure of viable cells.)

Data set [4] deals with purified Trypanosoma cruzi tublin (Trypanosoma cruzi, UniProt P08562+Q27352). As to the kind of experiment: Tubulin assembly assay. The format is biochemical. Conditions: purified T. cruzi tubulin 1.2 mg/ml, absorbance at 405 nm, 30° C.; read-out: Tubulin polymerization Inhibition IC50. Here is the method:
Tubulin assembly assays were conducted to assess tubulin polymerization inhibition. The assays were conducted in a 96-well microplate. Assembly reactions were conducted in a buffer containing 0.1 M PIPES (pH 6.9), 1 mM EGTA, 5 mM Mgcl, 1.2 mg/ml purified Trypanosoma cruzi tublin, at concentrations (0.6-40 μM) of the imido-substituted 1,4-naphthoquinone (IMDNQ 1-IMDNQ 11). Components of the reaction mixtures were added to the microplate and assembly was initiated by the addition of 1 mM GTP. The assembly reactions were assayed photometrically by measuring the absorbance at 405 nm using a microplate reader at 30° C.

The nature of data set [5]: MTT cytotoxicity assay on Balb/C 3T3 mouse fibroblasts. The format is cell-based. Conditions: mouse, Cytotoxicity IC50. On the procedure:
as §2

Data set [6] is described as follows: Antitrypanosomal activity against Trypanosoma cruzi epimastigotes (parasite count). The format is cell-based. The settings on record: mouse (fibroblasts) / Trypanosoma cruzi (parasites); ratio of IC50 for fibroblast cells/IC50 for parasites; read-out: Selectivity Index (Cytotoxicity/Activity). On the procedure:
as §1

The mark [7] stands for this setting: Balb/C 3T3 mouse fibroblasts, MTT, mean ± S.E. of three experiments, read-out: Cytotoxicity IC50.

Where “and” joins values, the source holds several entries; their conditions need not be identical. Identical values can stand only once. Like-named read-outs stand apart in the source and are kept apart here.

On to `O=C1C(c2ccccc2)=C(c2ccccc2)C(=O)c2ccccc21` [2,3-diphenyl-1,4-naphthoquinone], for which, in data set [1], the LD50 is 2.5 µM.
As usually defined, the melting point is the temperature of the solid-liquid transition. In the case of `O=C1C(Cl)=C(N(C(=O)c2ccccc2)C(=O)c2ccccc2)C(=O)c2ccccc21` [Example 20, 2-Dibenzoylamino-3-chloro-1,4-naphthoquinone], the melting point was in the range of 294 to 297 °C.
Take `O=C1C(Br)=C(N(C(=O)c2ccccc2)C(=O)c2ccccc2)C(=O)c2ccccc21` [Example 21, 2-Dibenzoylamino-3-bromo-1,4-naphthoquinone]: the melting point lay within 234 to 238 °C.
In the case of `O=C1C(Br)=C(N(C(=O)c2cccc(Cl)c2)C(=O)c2cccc(Cl)c2)C(=O)c2ccccc21` [Example 22, 2-bis-(3-chlorobenzoyl)amino-3-bromo-1,4-naphthoquinone], the melting point was 204 to 206 °C.
On the same count and under the same terms, under `O=C1C(Br)=C(N(C(=O)c2ccc(Cl)cc2)C(=O)c2ccc(Cl)cc2)C(=O)c2ccccc21` [Example 23, 2-bis-(4-chlorobenzoyl)amino-3-bromo-1,4-naphthoquinone] stands 266 to 269 °C; under `CC(C)(C)c1ccc(C(=O)N(C(=O)c2ccc(C(C)(C)C)cc2)C2=C(Cl)C(=O)c3ccccc3C2=O)cc1` [Example 24, 2-bis-(4-tert-butylbenzoyl)amino-3-chloro-1,4-naphthoquinone], 257 to 260 °C; under `COc1ccc(C(=O)N(C(=O)c2ccc(OC)cc2)C2=C(Cl)C(=O)c3ccccc3C2=O)cc1` [Example 28, 2-bis-(4-methoxybenzoyl)amino-3-chloro-1,4-naphthoquinone], 283 to 287 °C.
A word on the IC50: it is the midpoint of a concentration-inhibition curve. On to `O=C1C(Cl)=C(N2C(=O)CCC2=O)C(=O)c2ccccc21` [IMDNQ1, 2-chloro-3-(N-succinimidyl)-1,4-naphthoquinone], for which, in data set [2], the IC50 came out at 2.77 µM; the “Selectivity index greater/better than nifurtimox” value is listed as “at least 300%”; the “Selectivity Index (Cytotoxicity/Activity)” value was 60.25 and 60.25 ± 2.79. Besides, the “Cytotoxicity compared with nifurtimox” value in data set [3] is reported as “far less cytotoxic than nifurtimox”. In addition, the IC50 in data set [3] (setting [7]) was > 100 µM and 166 µM. For the same molecule, the IC50 in data set [4] was 6 µM.
For the molecule `O=C1C(Cl)=C(N2C(=O)c3ccccc3C2=O)C(=O)c2ccccc21` [IMDNQ2], in data set [2], the IC50 is 4.89 µM and 4.83 µM; the “Selectivity index greater/better than nifurtimox” value is “at least 300%”; the “Selectivity Index (Cytotoxicity/Activity)” value is 53.97 and 53.97 ± 5.95. Also, the “Cytotoxicity compared with nifurtimox” value in data set [3] was “far less cytotoxic than nifurtimox”. Further, the IC50 in data set [3] (setting [7]) stood at 253.7 ± 1.87 µM. Besides, in data set [4], the half-maximal inhibitory concentration (IC50) was found to be 12 µM.
Take `CCCC(=O)N(C(=O)CCC)C1=C(Cl)C(=O)c2ccccc2C1=O` [IMDNQ3]: the IC50 worked out at 0.7 µM in data set [2], 21.7 µM in data set [3] (setting [7]) and 3.2 µM in data set [4]. In addition, the “Selectivity Index (Cytotoxicity/Activity)” value in data set [2] is 31.83 and 31.83 ± 3.17.
On to `O=C1C(Cl)=C(N2C(=O)COCC2=O)C(=O)c2ccccc21` [IMDNQ4], for which the IC50 in data set [2] was found to be 4.93 ± 0.64 µM; in data set [3] (setting [7]), 35.5 ± 1.76 µM. For the same molecule, the “Selectivity Index (Cytotoxicity/Activity)” value in data set [2] worked out at 7.43 ± 0.97.
`O=C1C(Br)=C(N(C(=O)c2ccc(F)cc2)C(=O)c2ccc(F)cc2)C(=O)c2ccccc21` [IMDNQ5, N-(3-Bromo-1,4-dioxo-1,4-dihydronaphthalen-2-yl)-4-fluoro-N-(4-fluorobenzoyl)-benzamide] had a melting point of 170 to 172 °C. In addition, in data set [2], the IC50 is 2.27 ± 0.15 µM and the “Selectivity Index (Cytotoxicity/Activity)” value is reported as 5.70 ± 0.06. In data set [5], this molecule gave an IC50 at 48 h of 12.8 µM.
Turning to `O=C1C(Br)=C(N(C(=O)c2ccccc2Cl)C(=O)c2ccccc2Cl)C(=O)c2ccccc21` [IMDNQ6, N-(3-Bromo-1,4-dioxo-1,4-dihydronaphthalen-2-yl)-2-chloro-N-(2-chlorobenzoyl)-benzamide], the melting point is 232 to 234 °C. Further, the IC50 in data set [2] (Trypanosoma cruzi, TULAHUEN) came to 1.51 µM. Besides, the “Selectivity Index (Cytotoxicity/Activity)” value in data set [2] is 9.43 ± 0.94. This molecule also returned an IC50 at 48 h in data set [5] of 14.2 µM.
`O=C1C(Cl)=C(N(C(=O)c2ccc(Cl)cc2)C(=O)c2ccc(Cl)cc2)C(=O)c2ccccc21` [IMDNQ7, 4-Chloro-N-(4-chlorobenzoyl)-N-(3-chloro-1,4-dioxo-1,4-dihydronaphthalen-2-yl)-benzamide] registered a melting point of 212 to 213 °C. Also, in data set [2] (Trypanosoma cruzi, TULAHUEN), the IC50 came to 1.27 ± 0.15 µM. Moreover, the “Selectivity Index (Cytotoxicity/Activity)” value in data set [2] is 14.23 ± 1.62. This molecule also showed a half-maximal inhibitory concentration (IC50) in data set [3] (mouse) of 17.8 ± 2.21 µM.
Molecule `O=C1C(Cl)=C(N(C(=O)c2ccccc2Cl)C(=O)c2ccccc2Cl)C(=O)c2ccccc21` [IMDNQ8, 2-Chloro-N-(2-chlorobenzoyl)-N-(3-chloro-1,4-dioxo-1,4-dihydronaphthalen-2-yl)-benzamide] showed a melting point of 217 to 218 °C. In data set [2], the IC50 stood at 2.67 ± 0.33 µM and the “Selectivity Index (Cytotoxicity/Activity)” value was 10.17 ± 0.97. This molecule yielded an IC50 at 48 h in data set [5] of 26.5 µM.
Molecule `O=C1C(Cl)=C(N(C(=O)c2ccc(F)cc2)C(=O)c2ccc(F)cc2)C(=O)c2ccccc21` [IMDNQ9, N-(3-Chloro-1,4-dioxo-1,4-dihydronaphthalen-2-yl)-4-fluoro-N-(4-fluorobenzoyl)-benzamide] gave a melting point of 284 to 286 °C. In data set [2], the IC50 is 4.07 ± 0.23 µM and the “Selectivity Index (Cytotoxicity/Activity)” value is reported as 5.43 ± 0.69. The same molecule registered an IC50 at 48 h in data set [5] of 21.8 µM.
For `O=C1C(Cl)=C(N(C(=O)c2cccc(Cl)c2)C(=O)c2cccc(Cl)c2)C(=O)c2ccccc21` [IMDNQ10, 3-Chloro-N-(3-chlorobenzoyl)-N-(3-chloro-1,4-dioxo-1,4-dihydronaphthalen-2-yl)-benzamide], the melting point lay in the range of 258 to 260 °C. The selectivity ratio at 48 h in data set [6] was 275. Also, the IC50 in data set [2] (Trypanosoma cruzi, TULAHUEN) amounted to 2.23 µM. Further, the “Selectivity index, times better than nifurtimox” value in data set [2] (calculated selectivity index relative to nifurtimox) is reported as “about 25 times”. The “Selectivity index greater/better than nifurtimox” value in data set [2] is “at least 300%”. Further, the IC50 in data set [3] (mouse) amounted to 611 ± 10.3 µM. In data set [4], the IC50 came out at 8 µM.
Take `O=C1C(Cl)=C(N(C(=O)CCl)C(=O)CCl)C(=O)c2ccccc21` [IMDNQ11]: the figures for the IC50 in data set [2], in data set [3] (setting [7]) and in data set [4] were 6.1 ± 0.38 µM, 19.7 ± 3.71 µM and over 40 µM, respectively. Further, the “Selectivity Index (Cytotoxicity/Activity)” value in data set [2] came out at 3.20 ± 0.44.
On to `CC1CS(=O)(=O)CCN1/N=C/c1ccc([N+](=O)[O-])o1` (stereo not shown) [Nifurtimox, reference compound], for which, in data set [2], the 50% inhibitory concentration (IC50) came to 10.7 µM.

Source of the values: US9422231B2, “Method for inhibiting Trypanosoma cruzi” (HOWARD UNIVERSITY, priority 2011, dated 2016).
